Experiments:
MicD-F and ArtGox [1] = test: One-pot cyclodehydration and dehydrogenation of peptide substrates by MicD-F and ArtGox, LC-MS; type: biochemical, Microcystis aeruginosa; Arthrospira platensis
From the text: Next, we explored whether MicD-F and ArtGox could act in synergy to convert peptides containing non-α-amino acids at the +1 site directly into the corresponding thiazoles 3(a-i) (FIG. 9A). […] ArtGox efficiently oxidized each thiazoline to the corresponding thiazole in yields that exceeded 97% over the two steps for every example (products 3(a-i)) (FIGS. 9B and D). UHPLC analysis of each reaction mixture confirmed that thiazoles 3a-e were the sole reaction product. Coelution with excess flavin mononucleotide precluded UHPLC analysis of thiazoles 3f-i (FIG. 18).
Reactions were analyzed as described above. Under these conditions, every peptide evaluated was a substrate for MicD-F and a few were substrates for both MicD-F and ArtGox (FIG. 10B-C). Substrates containing β^3-amino acid-, β^2-amino acid-, or cyclic β^2,β^3-amino acids at the −1 site (substrates 4(a-d)), were fully consumed under these conditions (<1% unmodified peptide). […] In contrast, substrate 4b, with geminal β^2-methyl substituents, was converted into a 30/70 mixture of thiazoline 5b and thiazole 6b. Substrates 4e-g containing aramid monomers at the −1 position reacted more slowly under these conditions, producing the analogous thiazoline products in 65-85% yield after 24 h reaction at pH 8 (FIG. 10B-C). […] With the exception of substrate 4c, increasing the pH to 9.0 promoted formation of the desired thiazole product (FIG. 21B-C). However, even under these conditions only substrate 4b (88%) yielded greater than 41% thiazole product (FIG. 21B-C). […] ArtGox appears especially intolerant of substitution or sp^2 hybridization at the β^3-position of substrates at the −1 site.
A typical reaction scale for analysis via LC-MS was 30 μL. Peptide substrate stock (3 L) suspended at 1 mM in 10 mM bicine, 150 mM NaCl, 1 mM TCEP, pH 9.0 was added to 21 L of reaction buffer (7.14 mM ATP, 7.14 mM MgCl2, 2.86 mM FMN, 100 mM bicine, 150 mM NaCl, 1 mM TCEP, pH 8.0 or 9.0). Separately, aliquots of MicD-F (500 M in 20 mM HEPES, 150 mM NaCl, 1 mM TCEP, pH 7.4) and ArtGox (800 M in 20 mM HEPES, 150 mM NaCl, 1 mM TCEP, pH 7.4) were thawed on ice. The thawed enzyme aliquots were then diluted with cold storage buffer (20 mM HEPES, 150 mM NaCl, 1 mM TCEP, pH 7.4) to a concentration equal to 10× the desired enzyme concentration. The peptide and enzyme solutions were then incubated at 37° C. for 15 minutes. After temperature equilibration, enzyme solutions (3 μL of each) were added to the peptide solution and gently pipette mixed. The resulting solution was then incubated at 37° C. for the indicated amount of time before LC-MS analysis.
To remove 6×His-tagged enzymes, Ni-NTA (Qiagen, Hilden, Germany) slurry and crude reaction were mixed 1:1 by volume and incubated on ice for 30 minutes with occasional agitation. The Ni-NTA resin was then removed by centrifugation at 21,300×g for 10 minutes at 4° C. Enzyme-depleted reaction mixture (1 μL) was used for LC-MS analysis which was performed on an Agilent 1290 Infinity II HPLC connected to an Agilent 6530B QTOF AJS-ESI. The mobile phase for LC-MS was water and acetonitrile with 0.1% (v/v) formic acid and a flow rate of 0.7 mL/min. Each sample was injected onto an Eclipse XDB C-18 column (2.1×50 mm, 1.8-Micron, room temperature, Agilent) and separated using a linear gradient from 5 to 95% acetonitrile over 4.5 minutes after an initial hold at 5% acetonitrile for 0.5 minutes. The following parameters were used during acquisition: Fragmentor voltage 175 V, gas temperature 300° C., gas flow 8 L/min, sheath gas temperature 350° C., sheath gas flow 11 L/min, nebulizer pressure 35 psi, skimmer voltage 65 V, Vcap 3500 V, 1 spectra/s.

MicD-F [2] = test: MicD-F-catalyzed cyclodehydration of leader-free peptide substrates, LC-MS; type: biochemical, Microcystis aeruginosa; conditions: pH 8.0, 37° C.; for cyclodehydration by MicD-F: 50 mol % MicD-F, 24 hours
Sequence of MicD-F (as listed by the source): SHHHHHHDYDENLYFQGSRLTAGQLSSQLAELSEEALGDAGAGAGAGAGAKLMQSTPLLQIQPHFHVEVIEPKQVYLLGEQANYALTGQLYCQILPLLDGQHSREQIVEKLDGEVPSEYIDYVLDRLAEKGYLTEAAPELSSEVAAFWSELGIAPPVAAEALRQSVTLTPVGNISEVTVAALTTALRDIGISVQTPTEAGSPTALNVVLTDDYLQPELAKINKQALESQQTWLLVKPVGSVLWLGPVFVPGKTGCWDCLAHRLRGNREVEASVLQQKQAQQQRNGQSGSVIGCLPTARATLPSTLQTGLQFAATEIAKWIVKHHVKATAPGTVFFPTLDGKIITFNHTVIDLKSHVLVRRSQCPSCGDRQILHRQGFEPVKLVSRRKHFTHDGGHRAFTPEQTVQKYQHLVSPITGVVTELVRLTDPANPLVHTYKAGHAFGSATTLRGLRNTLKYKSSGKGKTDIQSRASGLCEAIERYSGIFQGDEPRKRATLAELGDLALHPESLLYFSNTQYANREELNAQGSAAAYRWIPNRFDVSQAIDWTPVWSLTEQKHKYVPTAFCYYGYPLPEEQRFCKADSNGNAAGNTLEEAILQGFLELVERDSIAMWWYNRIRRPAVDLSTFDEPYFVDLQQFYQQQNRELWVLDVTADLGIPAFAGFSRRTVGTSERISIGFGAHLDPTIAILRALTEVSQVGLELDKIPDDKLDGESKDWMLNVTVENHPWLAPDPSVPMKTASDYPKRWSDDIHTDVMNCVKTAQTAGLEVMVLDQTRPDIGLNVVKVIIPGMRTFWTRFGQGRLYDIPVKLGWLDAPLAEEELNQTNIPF
Procedure: We began by exploring the tolerance of MicD-F for sequences containing non-α-amino acid monomers at the +1 site (FIG. 8A and FIG. 9A-B). A series of nine potential substrates were prepared in which a non-α-amino acid preceded the reaction site (substrates 1(a-i)). Monomers evaluated included arenes, aramids, fluorophores, and linear and cyclic β-amino acids. […] Cyclization was analyzed initially via liquid chromatography-mass spectrometry (LC-MS) and the extent of product formation estimated by integrating the extracted ion chromatogram (FIG. 9B-C). Virtually every substrate examined underwent MicD-F-catalyzed cyclization to the corresponding thiazoline under these conditions. Substrates containing electron-withdrawing or donating aromatic rings, bulky multi-ring systems, and linear and cyclic β-amino acids were all cyclized efficiently by MicD-F, with yields between 91 and 99% (products 2(a-i)). UHPLC analysis of each reaction mixture confirmed that thiazolines 2a-i were the sole reaction products under these conditions (FIG. 16).
A typical reaction scale for analysis via LC-MS was 30 μL. Peptide substrate stock (3 μL) suspended at 1 mM (10 mM bicine, 150 mM NaCl, 1 mM TCEP, pH 9.0) was added to 24 μL of reaction buffer (6.25 mM ATP, 6.25 mM MgCl2, 100 mM bicine, 150 mM NaCl, 1 mM TCEP, pH 8.0 or 9.0). Separately, an aliquot of MicD-F (500 M in 20 mM HEPES, 150 mM NaCl, 1 mM TCEP, pH 7.4) was thawed on ice. The thawed enzyme aliquot was then diluted with cold storage buffer (20 mM HEPES, 150 mM NaCl, 1 mM TCEP, pH 7.4) to a concentration equal to 10× the desired enzyme concentration. The peptide and enzyme solutions were then incubated at 37° C. for 15 minutes. After temperature equilibration, enzyme solution (3 μL) was added to the peptide solution and gently pipette mixed. The resulting solution was then incubated at 37° C. for the indicated amount of time before LC-MS analysis.
To remove 6×His-tagged enzymes, Ni-NTA (Qiagen, Hilden, Germany) slurry and crude reaction were mixed 1:1 by volume and incubated on ice for 30 minutes with occasional agitation. […]

MicD-F [3] = test: Reaction of protein substrates (mCherry and Rop variants) with MicD-F, LC-MS deconvoluted mass; type: biochemical, Microcystis aeruginosa; conditions: 50 mol % MicD-F, 24 hours
Procedure: Reactions of proteins with MicD-F were performed in the manner described above with minor modifications. Namely, the substrate stock was a 1 mM solution of protein in 20 mM HEPES, 150 mM NaCl, 1 mM TCEP, pH 7.4.
(§1) Unprocessed reaction mixture (1 μL) was used for LC-MS analysis which was performed on an Agilent 1290 Infinity II HPLC connected to an Agilent 6530B QTOF AJS-ESI. The mobile phase for LC-MS was water and acetonitrile with 0.1% (v/v) formic acid and a flow rate of 0.4 mL/min. Each sample was injected onto a Poroshell 300SB-C8 column (2.1×75 mm, 5-Micron, room temperature, Agilent) using a linear gradient from 5 to 55% acetonitrile over 8 minutes after an initial hold at 5% acetonitrile for 2 minutes (0.4 mL/min). The following parameters were used during acquisition: Fragmentor voltage 225 V, gas temperature 300° C., gas flow 10 L/min, sheath gas temperature 350° C., sheath gas flow 11 L/min, nebulizer pressure 35 psi, skimmer voltage 65 V, Vcap 5000 V, 1 spectra/s. Intact protein masses were obtained via deconvolution using the Maximum Entropy algorithm in Mass Hunter Bioconfirm (V10, Agilent).

MicD-F and ArtGox [4] = test: Reaction of protein substrates with MicD-F and ArtGox in tandem, LC-MS deconvoluted mass; type: biochemical, Microcystis aeruginosa; Arthrospira platensis; conditions: 50 mol % MicD-F, 80 mol % ArtGox, pH 9.0, 37° C., 24 hours
Procedure: Reactions of proteins with MicD-F and ArtGox were performed in the manner described above with minor modifications. The substrate stock was a 1 mM solution of protein in 20 mM HEPES, 150 mM NaCl, 1 mM TCEP, pH 7.4. Reactions were carried out at either 25° C. or 37° C. as indicated.
as §1

[5] = 50 mol % MicD-F, 8 mol % ArtGox, pH 8.0, 37° C., 24 h
[6] = 50 mol % MicD-F, 8 mol % ArtGox, pH 8.0, 37° C., 24 h, −1 site substrates

## IC-[ACHC]-AYDG [substrate 4c]
MicD-F and ArtGox [1]; [5]
  conversion into thiazoline: converted cleanly
  thiazole formation: no

## IC-[ACPC]-AYDG [substrate 4d]
MicD-F and ArtGox [1]; [5]
  conversion into thiazoline: converted cleanly
  thiazole formation: no

## IC-[B2-Dimethyl]-AYDG [substrate 4b]
MicD-F and ArtGox [1]; [6]
  yield of thiazole product: 70%
  yield of thiazoline product: 30%
MicD-F and ArtGox [1]; 50 mol % MicD-F, 8 mol % ArtGox, pH 9.0, 37° C., 24 h, −1 site substrates
  yield of thiazole product: 88%

## IC-[B3-HIle]-AYDG [substrate 4a]
MicD-F and ArtGox [1]; [5]
  conversion into thiazoline: converted cleanly
  thiazole formation: little

## ICAYDG [reference compound]
MicD-F and ArtGox [1]; 5 mol % MicD-F, 40 mol % ArtGox, pH 8.0, 37° C., 16 h
  two-step conversion into thiazole: complete two-step conversion
MicD-F [2]; 5 mol % MicD-F, 4 h
  conversion by MicD-F: complete conversion

## ICIAYDG [model peptide with α-amino acid Ile between the site of cyclization and the AYD motif, reference compound]
MicD-F and ArtGox [1]; [5]
  thiazole formation: complete conversion
MicD-F [2]
  cyclodehydration by MicD-F: complete reaction

## ITAYDG
MicD-F [2]
  cyclodehydration by MicD-F: significant cyclodehydration

## mCherryC+: mCherry variant with MCAYDG appended to the C-terminus, SEQ ID NO: 9
MicD-F [3]; pH 9.0, 37° C.
  cyclodehydration of mCherry variants to thiazoline (loss of water): virtually complete conversion
MicD-F [3]; pH 9.0, 42° C.
  cyclodehydration of mCherry variants to thiazoline (loss of water): nearly completely converted
MicD-F and ArtGox [4]
  thiazole installation (mass shift relative to MicD-F only): expected −2 Da shift

From patent publication US20250179550A1, “Methods to imbue polymeric materials with new structures and functions” (The Regents of the University of California, priority 2022, published 2025)
